Assay results taken from US10364238B2, “N-((het) arylmethyl)-heteroaryl-carboxamides compounds as plasma kallikrein inhibitors” (KALVISTA PHARMACEUTICALS LIMITED, priority 2014, dated 2019).

What was measured:
[1] = in vivo; cited from earlier work
diabetic rats = details: cited from earlier work
[2] = Pharmacokinetics following a single oral dose in rats; format: in vivo; details: rat, nominal 10 mg/kg, male Sprague-Dawley rats, plasma
Protocol: Pharmacokinetic studies of the compounds in Table 15 were performed to assess the pharmacokinetics following a single oral dose in male Sprague-Dawley rats. Two rats were given a single po dose of 5 mL/kg of a nominal 2 mg/mL (10 mg/kg) composition of test compound in vehicle. Following dosing, blood samples were collected over a period of 24 hours. Sample times were 5, 15 and 30 minutes then 1, 2, 4, 6, 8 and 12 hours. Following collection, blood samples were centrifuged and the plasma fraction analysed for concentration of test compound by LCMS.

Human plasma kallikrein = Human plasma kallikrein (Homo sapiens (Human), UniProt P03952); assay: Determination of the IC50 for plasma kallikrein; format: biochemical; details: 25° C., fluorogenic substrate H-DPro-Phe-Arg-AFC; read-out: IC50 (human PKaI)
Sequence of Human plasma kallikrein (P03952 391-638): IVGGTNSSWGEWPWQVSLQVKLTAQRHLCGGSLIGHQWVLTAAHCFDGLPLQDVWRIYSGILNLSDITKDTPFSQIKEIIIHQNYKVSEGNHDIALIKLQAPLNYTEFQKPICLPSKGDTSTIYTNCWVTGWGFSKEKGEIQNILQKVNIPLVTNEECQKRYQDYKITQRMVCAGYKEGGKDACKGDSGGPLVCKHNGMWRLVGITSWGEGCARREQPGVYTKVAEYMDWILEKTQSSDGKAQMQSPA
Sequence of Human plasma kallikrein (P03952 20-390 partner): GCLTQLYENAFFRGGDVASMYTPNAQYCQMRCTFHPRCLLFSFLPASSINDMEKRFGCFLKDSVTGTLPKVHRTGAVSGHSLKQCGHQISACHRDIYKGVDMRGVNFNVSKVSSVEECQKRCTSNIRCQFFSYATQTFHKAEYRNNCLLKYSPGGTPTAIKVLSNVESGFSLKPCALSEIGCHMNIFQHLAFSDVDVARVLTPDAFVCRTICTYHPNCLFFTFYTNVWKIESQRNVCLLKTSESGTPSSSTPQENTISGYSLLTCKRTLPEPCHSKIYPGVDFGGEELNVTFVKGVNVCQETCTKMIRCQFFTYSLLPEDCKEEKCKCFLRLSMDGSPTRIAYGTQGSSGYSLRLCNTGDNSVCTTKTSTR
Protocol: Determination of the IC50 for Plasma Kallikrein
(§1) Human plasma kallikrein (Protogen) was incubated at 25° C. with the fluorogenic substrate H-DPro-Phe-Arg-AFC and various concentrations of the test compound. Residual enzyme activity (initial rate of reaction) was determined by measuring the change in […] at 410 nm and the IC50 value for the test compound was determined.

Human FXIa = Human FXIa (Homo sapiens (Human), UniProt P03951); assay: Determination of the % inhibition for FXIa; format: biochemical; details: 40 μM test compound, 25° C., substrate Z-Gly-Pro-Arg-AFC
Sequence of Human FXIa (P03951 388-625): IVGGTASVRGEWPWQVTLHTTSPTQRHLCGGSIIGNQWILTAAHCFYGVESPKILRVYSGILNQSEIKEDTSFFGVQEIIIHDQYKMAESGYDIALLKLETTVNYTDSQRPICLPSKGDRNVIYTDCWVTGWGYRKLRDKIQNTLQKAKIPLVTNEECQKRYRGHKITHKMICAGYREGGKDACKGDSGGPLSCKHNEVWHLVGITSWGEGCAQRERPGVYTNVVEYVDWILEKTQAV
Sequence of Human FXIa (P03951 19-387 partner): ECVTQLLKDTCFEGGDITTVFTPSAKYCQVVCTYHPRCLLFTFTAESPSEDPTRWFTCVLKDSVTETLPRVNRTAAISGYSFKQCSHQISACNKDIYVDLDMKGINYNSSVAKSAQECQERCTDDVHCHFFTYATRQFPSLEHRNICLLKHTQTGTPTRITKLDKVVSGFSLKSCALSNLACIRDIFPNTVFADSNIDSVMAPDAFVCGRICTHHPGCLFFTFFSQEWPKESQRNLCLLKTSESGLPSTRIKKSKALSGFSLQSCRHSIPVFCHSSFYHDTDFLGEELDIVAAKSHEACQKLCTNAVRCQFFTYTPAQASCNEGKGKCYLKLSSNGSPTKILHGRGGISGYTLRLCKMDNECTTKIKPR
Protocol: Determination of the % Inhibition for FXIa
Human FXIa (Enzyme Research Laboratories) was incubated at 25° C. with the fluorogenic substrate Z-Gly-Pro-Arg-AFC and 40 μM of the test compound. Residual enzyme activity (initial rate of reaction) was determined by measuring the change in […].

Human KLK1 = Human KLK1 (Homo sapiens (Human), UniProt P06870); assay: Determination of the IC50 for KLK1; format: biochemical; details: 25° C., fluorogenic substrate H-DVal-Leu-Arg-AFC
Sequence of Human KLK1 (P06870 25-262): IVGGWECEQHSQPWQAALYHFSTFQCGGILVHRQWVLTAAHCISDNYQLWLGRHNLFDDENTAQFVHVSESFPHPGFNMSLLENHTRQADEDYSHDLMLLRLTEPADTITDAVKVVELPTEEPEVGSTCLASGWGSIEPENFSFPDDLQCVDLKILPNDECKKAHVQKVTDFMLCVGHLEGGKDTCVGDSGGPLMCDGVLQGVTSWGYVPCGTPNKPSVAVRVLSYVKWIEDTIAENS
Protocol: Determination of the IC50 for KLK1
as §1, with “KLK1 (Callbiochem)” for “plasma kallikrein (Protogen)”, “H-DVal-Leu-Arg-AFC” for “H-DPro-Phe-Arg-AFC”

Row | Structure (SMILES) | oral availability [1] | effect on retinal vascular permeability and retinal blood flow abnormalities (diabetic rats) | Cmax [2] [ng/mL] | Tmax [2] [h] | IC50 (Human plasma kallikrein) [nM] | inhibition at 40 µM (Human FXIa) [%] | IC50 (Human KLK1) [nM]
1 | N=C(N)c1ccc(CNC(=O)c2cnn(Cc3ccccc3)c2)cc1 [ASP-440] | poor oral availability | ameliorated both retinal vascular permeability and retinal blood flow abnormalities | – | – | – | – | –
2 | COCc1nn(Cc2ccc(Cn3ccccc3=O)cc2)cc1C(=O)NCc1c(F)ccc(OC)c1F [Example 66, N-[(2,6-difluoro-3-methoxyphenyl)methyl]-3-(methoxymethyl)-1-({4-[(2-oxopyridin-1-yl)methyl]phenyl}methyl)pyrazole-4-carboxamide] | – | – | 2890 | 1 | 4.6 | 4 | > 10000
